In PubChem BioAssay (NCI):
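Values below derive from 48-hour exposures of cells grown in 96-well plates, with endpoints linearly interpolated between the two concentrations bracketing the appropriate inhibition level. GI50 = concentration required for 50% inhibition of growth. Definition used: TGI = concentration required for complete inhibition of growth.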

Assays:
Assay in all cases: growth of human tumour cells (NCI), 48 h
[1] = tested on: A498 renal
[2] = tested on: A549 NSCLC
[3] = tested on: CCRF-CEM leukemia
[4] = tested on: HCC-2998 colon
[5] = tested on: HOP-92 NSCLC
[6] = tested on: IGROV1 ovarian
[7] = tested on: MOLT-4 leukemia
[8] = tested on: NCI-H460 lung
[9] = tested on: RPMI-8226 leukemia
[10] = tested on: SNB-75 CNS

CN1CCN(Cc2ccc(NC(=O)c3cncc(C#Cc4cnn5ccccc45)c3)cc2C(F)(F)F)CC1
GI50 [1]: 0.821 µM
TGI [1]: 1.89 µM
GI50 [2]: 0.723 µM
TGI [2]: 3.56 µM
GI50 [3]: 0.202 µM
TGI [3]: 1.67 µM
GI50 [4]: 0.902 µM
TGI [4]: 3.07 µM
GI50 [5]: 0.633 µM
TGI [5]: 2.98 µM
GI50 [6]: 0.858 µM
TGI [6]: 3.61 µM
GI50 [7]: 0.358 µM
TGI [7]: 3.56 µM
GI50 [8]: 0.402 µM
TGI [8]: 1.98 µM
GI50 [9]: 0.57 µM
TGI [9]: 1.82 µM
GI50 [10]: 0.893 µM
TGI [10]: 1.81 µM

CCOc1c(C#N)c2c(N)ncnc2n1C1OC(CO)C(O)C1O (stereo not given)
GI50 [1]: 4.23 µM
TGI [1]: 49.2 µM
GI50 [2]: 2.27 µM
TGI [2]: > 100 µM
GI50 [3]: 3.18 µM
TGI [3]: 24 µM
GI50 [4]: 3.92 µM
TGI [4]: 28.2 µM
GI50 [5]: 2.82 µM
TGI [5]: > 100 µM
GI50 [6]: 0.761 µM
TGI [6]: 2.54 µM
GI50 [7]: 2.95 µM
TGI [7]: 15.1 µM
GI50 [8]: 2.48 µM
TGI [8]: > 100 µM
GI50 [9]: 2.12 µM
TGI [9]: 9 µM
GI50 [10]: 5.61 µM
TGI [10]: > 76 µM

CN(O)C(=S)c1ccccc1
TGI [1]: 68.2 µM
TGI [2]: > 100 µM
TGI [3]: 4.99 µM
TGI [4]: 44 µM
TGI [5]: > 100 µM
TGI [6]: 56.3 µM
TGI [7]: 5.11 µM
TGI [8]: 18.3 µM
TGI [9]: 1.68 µM
TGI [10]: > 100 µM

N#Cc1c(N)nc(N2CCSCC2)c(C#N)c1-c1ccc(O)cc1
GI50 [1]: 13.4 µM
TGI [1]: 29.8 µM
GI50 [2]: 30.7 µM
TGI [2]: > 100 µM
GI50 [3]: 26.4 µM
TGI [3]: > 100 µM
GI50 [4]: 17.2 µM
TGI [4]: 36.6 µM
GI50 [5]: 10.1 µM
TGI [5]: 47.5 µM
GI50 [6]: 32.6 µM
TGI [6]: > 100 µM
GI50 [7]: 11.6 µM
TGI [7]: 34.5 µM
GI50 [8]: 13.4 µM
TGI [8]: 29.5 µM
GI50 [9]: 17.3 µM
TGI [9]: 48.5 µM
GI50 [10]: 10.9 µM
TGI [10]: 30.4 µM

C1CCN2CC3CCCN4CCCC(C2C1)C34 (stereo not given)
TGI [1]: > 100 µM
TGI [2]: > 100 µM
TGI [3]: > 100 µM
TGI [4]: > 100 µM
TGI [5]: > 100 µM
TGI [6]: > 100 µM
TGI [7]: > 100 µM
TGI [8]: > 100 µM
TGI [9]: > 100 µM
TGI [10]: > 100 µM

O=C1C(=O)N(c2cccc(C(F)(F)F)c2)C(=O)C(=O)C1c1nc2ccccc2s1
TGI [1]: > 100 µM
TGI [2]: > 100 µM
TGI [3]: 65.1 µM
TGI [4]: > 100 µM
TGI [5]: > 100 µM
TGI [6]: > 100 µM
TGI [7]: > 100 µM
TGI [8]: > 100 µM
TGI [9]: > 100 µM
TGI [10]: > 100 µM

CCN(CC)CC(C)(C)C(=O)/C=C/c1ccc(/C=C/C(=O)C(C)(C)CN(CC)CC)cc1
TGI [1]: 3.49 µM
TGI [2]: 5.76 µM
TGI [3]: 0.31 µM
TGI [4]: 1.56 µM
TGI [5]: 1.46 µM
TGI [6]: 7.04 µM
TGI [7]: 0.546 µM
TGI [8]: 0.755 µM
TGI [9]: 0.46 µM
TGI [10]: 3.44 µM

O=C(Nc1ccc2c(c1)OCO2)C(=O)c1c[nH]c2cc(F)ccc12
GI50 [1]: 2.72 µM
TGI [1]: 16.7 µM
GI50 [2]: 2.81 µM
TGI [2]: > 100 µM
GI50 [3]: 5.33 µM
TGI [3]: > 100 µM
GI50 [4]: 0.688 µM
TGI [4]: > 100 µM
GI50 [5]: 1.12 µM
TGI [5]: 5.6 µM
GI50 [6]: 12.6 µM
TGI [6]: > 100 µM
GI50 [7]: 11.7 µM
TGI [7]: 69.2 µM
GI50 [8]: 3.26 µM
TGI [8]: > 100 µM
GI50 [9]: 50 µM
TGI [9]: > 100 µM
GI50 [10]: 2.6 µM
TGI [10]: 12.1 µM

COc1ccc(/C=C2\CC(C)CC3C2=NN(c2ccccc2)C3c2ccc(OC)c(OC)c2)cc1OC (stereo not given)
GI50 [1]: 14.5 µM
TGI [1]: 72.7 µM
GI50 [2]: 5.72 µM
TGI [2]: > 100 µM
GI50 [3]: 4.02 µM
TGI [3]: > 100 µM
GI50 [4]: 1.69 µM
TGI [4]: 3.13 µM
GI50 [5]: 5.32 µM
TGI [5]: > 100 µM
GI50 [6]: 5.37 µM
TGI [6]: > 100 µM
GI50 [7]: 2.69 µM
TGI [7]: 92.4 µM
GI50 [8]: 3.09 µM
TGI [8]: 12.4 µM
GI50 [9]: 3.38 µM
TGI [9]: > 100 µM
GI50 [10]: 3.4 µM
TGI [10]: 18.5 µM

CC1CC(C)C2=NOS3=C2C1=NO3 (stereo not given)
TGI [1]: 94.8 µM
TGI [2]: > 100 µM
TGI [3]: > 100 µM
TGI [4]: > 100 µM
TGI [5]: > 100 µM
TGI [6]: > 100 µM
TGI [7]: > 100 µM
TGI [8]: > 100 µM
TGI [9]: > 100 µM
TGI [10]: > 100 µM

COC(=O)C1=C(C(=O)OC)C2OC1c1cc3ccccc3cc12
TGI [1]: 36.7 µM
TGI [2]: 37 µM
TGI [3]: > 100 µM
TGI [4]: 23.4 µM
TGI [5]: 6.34 µM
TGI [6]: 9.58 µM
TGI [7]: 3.22 µM
TGI [8]: 46.3 µM
TGI [9]: 5.41 µM
TGI [10]: 38.7 µM

COCOCC[C@@H]1CC=CC(NC(=O)OCc2ccccc2)C1/C=C/C(=O)CCC1OCCO1 (stereo not given in full)
TGI [1]: > 100 µM
TGI [2]: > 100 µM
TGI [3]: 75.7 µM
TGI [4]: > 100 µM
TGI [5]: > 100 µM
TGI [6]: > 100 µM
TGI [7]: 43.4 µM
TGI [8]: > 100 µM
TGI [9]: 63.5 µM
TGI [10]: > 90 µM
